Assay [1] concerns A549. As to the kind of experiment: Antiproliferative activity against human A549 cells assessed as reduction in cell viability after 24 to 72 hrs by MTT assay. Format: functional, cell-based. (Tetrazolium dyes change colour on reduction, which living cells bring about.)
The target of assay [2] is NAD(P)H dehydrogenase [quinone] 1 (Mus musculus) (UniProt Q64669). Kind of assay: Induction of quinone reductase in mouse Hepa1c1c7 cells at 100 uM incubated for 24 hrs by MTT based assay. Format: cell-based. The settings on record: filed as activator.
The subject of assay [3] is A549. Kind of assay: Induction of cell cycle arrest in human A549 cells assessed as accumulation at G0/G1 phase at 5 uM after 24 hrs by propodium iodide staining based flow cytometric analysis (reference value: 60.74 to 65.6%). Format: functional. For orientation: A flow cytometer gives signals particle by particle.
The subject of assay [4] is A549. Kind of assay: Induction of cell cycle arrest in human A549 cells assessed as accumulation at S phase at 5 uM after 24 hrs by propodium iodide staining based flow cytometric analysis (reference value: 23.42 to 28.6%). It is filed as functional.
Assay [5] has as its system A549. Kind of assay: Induction of cell cycle arrest in human A549 cells assessed as accumulation at G2/M phase at 5 uM after 24 hrs by propodium iodide staining based flow cytometric analysis (reference value: 10.66 to 10.98%). It is filed as functional.
In assay [6] the test system is A549. As to the kind of experiment: Induction of cell cycle arrest in human A549 cells assessed as accumulation at G0/G1 phase at 10 uM after 24 hrs by propodium iodide staining based flow cytometric analysis (reference value: 60.74 to 65.6%). It is filed as functional.
Assay [7] relates to A549. Kind of assay: Induction of cell cycle arrest in human A549 cells assessed as accumulation at S phase at 10 uM after 24 hrs by propodium iodide staining based flow cytometric analysis (reference value: 23.42 to 28.6%). Format: functional.
The subject of assay [8] is A549. As to the kind of experiment: Induction of cell cycle arrest in human A549 cells assessed as accumulation at G2/M phase at 10 uM after 24 hrs by propodium iodide staining based flow cytometric analysis (reference value: 10.66 to 10.98%). Format: functional.
The subject of assay [9] is A549. As to the kind of experiment: Induction of cell cycle arrest in human A549 cells assessed as accumulation at G0/G1 phase at 20 uM after 24 hrs by propodium iodide staining based flow cytometric analysis (reference value: 60.74 to 65.6%). It is filed as functional.
For assay [10], the system named is A549. As to the kind of experiment: Induction of cell cycle arrest in human A549 cells assessed as accumulation at S phase at 20 uM after 24 hrs by propodium iodide staining based flow cytometric analysis (reference value: 23.42 to 28.6%). Format: functional.
Assay [11] has as its system A549. As to the kind of experiment: Induction of cell cycle arrest in human A549 cells assessed as accumulation at G2/M phase at 20 uM after 24 hrs by propodium iodide staining based flow cytometric analysis (reference value: 10.66 to 10.98%). Format: functional.
Assay [12] deals with A549. As to the kind of experiment: Induction of apoptosis in human A549 cells assessed as early apoptotic cells at 10 uM after 24 hrs by Annexin-V FITC/PI staining based flow cytometry analysis (reference value: 3.97 to 4.33%). Format: functional.
Assay [13] deals with A549. Kind of assay: Induction of apoptosis in human A549 cells assessed as late apoptotic cells at 10 uM after 24 hrs by Annexin-V FITC/PI staining based flow cytometry analysis (reference value: 9.6%). It is filed as functional.
In assay [14] the test system is A549. As to the kind of experiment: Induction of apoptosis in human A549 cells assessed as early apoptotic cells at 20 uM after 24 hrs by Annexin-V FITC/PI staining based flow cytometry analysis (reference value: 3.97 to 4.33%). It is filed as functional.
The subject of assay [15] is A549. Kind of assay: Induction of apoptosis in human A549 cells assessed as late apoptotic cells at 20 uM after 24 hrs by Annexin-V FITC/PI staining based flow cytometry analysis (reference value: 9.6%). Format: functional.
The target in assay [16] is NAD(P)H dehydrogenase [quinone] 1 (Mus musculus) (UniProt Q64669). Kind of assay: Induction of quinone reductase in mouse Hepa1c1c7 cells at 50 uM incubated for 24 hrs by MTT based assay. Format: cell-based. The following applies: filed as activator.
Setting [17] is: Homo sapiens, A549, read-out: IC50.

Sequence of NAD(P)H dehydrogenase [quinone] 1 (Mus musculus) (Q64669 whole entry): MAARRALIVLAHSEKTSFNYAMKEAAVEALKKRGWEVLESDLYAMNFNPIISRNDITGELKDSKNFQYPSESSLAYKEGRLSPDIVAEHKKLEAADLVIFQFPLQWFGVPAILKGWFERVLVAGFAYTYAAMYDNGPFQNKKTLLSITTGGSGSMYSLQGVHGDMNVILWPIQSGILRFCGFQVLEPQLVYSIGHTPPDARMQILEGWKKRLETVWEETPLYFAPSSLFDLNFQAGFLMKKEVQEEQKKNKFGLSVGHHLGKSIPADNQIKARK

Broadly, the IC50 is the concentration at which inhibition is half-maximal. On to `CC(=O)O[C@H]1O[C@@H](OC(C)=O)[C@]23C1=C[C@H](OC(=O)CC(C)C)C[C@H]2[C@](C)(C/C=C/C=O)[C@H](C)C[C@@H]3O`, for which, in [1] (a549), the IC50 entry was “Not Active”.

Take `C=C/C(C)=C/C[C@]1(C)[C@H](C)C[C@H](OC(=O)[C@@H](C)CC)[C@@]23C(=CC(=O)C[C@@H]12)[C@@H](OC(C)=O)O[C@H]3OC(C)=O`: in [1] (a549), the IC50 result is “Not Active”.

Turning to `C=C/C(C)=C/C[C@]1(C)[C@H](C)C[C@H](OC(=O)CC(C)C)[C@@]23C(=C[C@H](O)C[C@@H]12)[C@@H](OC(C)=O)O[C@H]3OC(C)=O`, in assay [1] (a549), the IC50 entry is given as “Not Active”.

Regarding `C=C/C(C)=C/C[C@]1(C)[C@H](C)C[C@H](OC(=O)C(C)C)[C@@]23C(=C[C@H](O)C[C@@H]12)[C@@H](OC(C)=O)O[C@H]3OC(C)=O`, the IC50 entry in assay [1] (a549) is given as “Not Active”.

Consider `C/C1=C/C[C@@H]2[C@@](C)(C/C=C(\C)CC[C@@H]1O)CC[C@@]2(O)C(C)C`, for which, in assay [2], the fold change (FC) turned out to be 1.5. Also, in [1] (a549), the IC50 entry is given as “Not Active”.

Take `C=CC(=C)[C@H](O)C[C@]1(C)[C@H](C)C[C@H](O)[C@@]23C(=C[C@H](OC(=O)CC(C)C)C[C@@H]12)[C@@H](OC(C)=O)O[C@H]3OC(C)=O`: the half-inhibitory concentration (IC50) in [1] (setting [17]) was 4.6 µM. The Activity in assay [3] is 64.17%; in assay [4], 24.62%; in [5], 11.21%; in assay [6] it was 55.45%; in assay [7] it was 31.33%; in [8], 13.21%. Moreover, the Activity in assay [9] is 38.95%; in assay [10] it was 61.05%; in assay [11], 0%; in assay [12], 5.44%; in [13], 10.45%; in [14] it was 10.41%. Further, in assay [15], the Activity is reported as 35.73%.

For the compound `CC(=O)O[C@H]1O[C@@H](OC(C)=O)[C@]23C1=C[C@H](OC(=O)C(C)C)C[C@H]2[C@](C)(C/C=C(\C)C=O)[C@H](C)C[C@@H]3O`, the IC50 entry in [1] (a549) was “Not Active”.

With `C=C/C(C)=C/C[C@]1(C)[C@H](C)C[C@H](OC(=O)[C@@H](C)CC)[C@@]23C(=C[C@H](O)C[C@@H]12)[C@@H](OC(C)=O)O[C@H]3OC(C)=O`, in assay [1] (a549), the IC50 entry is “Not Active”.

In the case of `CC1=C2C[C@@]3(C)CC[C@@](O)(C(C)C)[C@@H]3CC[C@]2(C)[C@@H](O)CC1`, in assay [1] (a549), the IC50 result is “Not Active”.

Turning to `C=C1CC[C@@H]2[C@@](C)(C/C=C(\C)CC[C@@H]1O)CC[C@@]2(O)C(C)C`, the fold change (FC) in assay [2] worked out at 1.5. Moreover, in [1] (a549), the IC50 result is “Not Active”.

In the case of `CC1=CC[C@H](O)[C@@]2(C)CC[C@@H]3[C@](C)(CC[C@@]3(O)C(C)C)C[C@H]12`, the fold change (FC) in assay [16] was determined as 1.4. In addition, the IC50 result in assay [1] (a549) is on record as “Not Active”.

For `C/C1=C\CC[C@@]2(C)O[C@@H]2C[C@H]2C(=O)C=C(C(C)C)[C@]2(O)CC1`, the fold change (FC) in assay [2] turned out to be 1.9. For the same compound, in assay [1] (a549), the half-maximal inhibitory concentration (IC50) entry is listed as “Not Active”.

On to `C/C1=C\C[C@@]2(C)CC[C@@](O)(C(C)C)[C@@H]2C/C=C(\C)[C@@H](O)CC1`, for which the fold change (FC) in assay [2] turned out to be 1.5. Moreover, in assay [1] (a549), the IC50 entry is given as “Not Active”.

In [2], `C/C1=C\CC[C@]2(C)O[C@H]2C[C@@H]2C(=O)C=C(C(C)C)[C@@]2(O)CC1` yielded a fold change (FC) of 1.5. For the same compound, the half-maximal inhibitory concentration (IC50) result in assay [1] (a549) is given as “Not Active”.

For the compound `CC(=O)O[C@H]1O[C@@H](OC(C)=O)[C@]23C1=C[C@H](OC(=O)CC(C)C)C[C@H]2[C@](C)(C/C=C(\C)C=O)[C@H](C)C[C@@H]3O`, the concentration for half-maximal inhibition (IC50) in assay [1] (setting [17]) was determined as 4.4 µM. Besides, the Activity in assay [4] is listed as 27.45%; in assay [5] it was 11.09%; in [6], 56.99%; in assay [7], 23.87%; in assay [8], 19.14%; in assay [9], 44.84%. The Activity was 34.59% in assay [10]; 20.56% in assay [11]; 6.04% in assay [12]; 9.94% in [13]; 13.7% in assay [14]; 25.27% in assay [15].

The values above are taken from ChEMBL document CHEMBL4699535, “Dolabellane and Clerodane Diterpenoids from the Twigs and Leaves of Casearia kurzii” (J Nat Prod, 2020).
